Data reported in patent US20250230154A1, “COMPOUND HAVING SHP2 PROTEIN DEGRADING ACTIVITY, AND MEDICAL USES THEREOF” (UBIX THERAPEUTICS, INC., priority 2021, published 2025).

Target: T1, SHP2 protein (Homo sapiens, UniProt Q06124)
T1 sequence (Q06124 1-593): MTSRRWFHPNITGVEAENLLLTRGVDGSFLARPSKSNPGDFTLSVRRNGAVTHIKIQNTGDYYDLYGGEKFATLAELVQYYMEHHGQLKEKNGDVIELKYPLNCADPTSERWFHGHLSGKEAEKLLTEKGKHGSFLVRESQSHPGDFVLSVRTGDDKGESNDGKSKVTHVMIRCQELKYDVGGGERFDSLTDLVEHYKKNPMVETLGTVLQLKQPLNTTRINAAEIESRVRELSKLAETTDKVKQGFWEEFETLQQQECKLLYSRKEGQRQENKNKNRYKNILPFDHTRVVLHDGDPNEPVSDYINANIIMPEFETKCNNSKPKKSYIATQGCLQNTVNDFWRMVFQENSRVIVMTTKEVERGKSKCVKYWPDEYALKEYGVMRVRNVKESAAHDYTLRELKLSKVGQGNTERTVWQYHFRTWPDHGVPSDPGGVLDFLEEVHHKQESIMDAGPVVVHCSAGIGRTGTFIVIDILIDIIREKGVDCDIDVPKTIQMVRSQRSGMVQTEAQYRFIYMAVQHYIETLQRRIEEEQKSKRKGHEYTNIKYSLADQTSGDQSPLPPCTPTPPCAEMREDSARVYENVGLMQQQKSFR
Test: Measurement of SHP2 protein degradation in KYSE-520 cells (western blotting)
Assay type: cell-based
Parameters: endogenous in cells
Conditions: 24 hours
Procedure: Experimental Example 1: Measurement of SHP2 Protein Degradation in KYSE-520 Cells
KYSE-520 cells were treated with the synthesized Example compound, and the amount of SHP2 protein present in the cells was measured using western blotting detection. The protocol of the experiment conducted using KYSE-520 cells was as follows:
[Culture] KYSE-520 cells resuspended in RPMI1640 MEDIUM (Hyclone, SH30027.01) containing 5% FBS (Hyclone, SV30207.02) and 1% Penicillin-streptomycin (Welgene, LS 202-02) were seeded at a density of 2.5×10^5/well in a 6-well plate in an amount of 2 ml each and incubated for 2 days.
[Compound treatment] […] After 24 hours, cells were harvested. For the negative control group, DMSO diluted 1/10 to the media (3 mL DMSO+27 mL media) was added.
[Cell Lysis and Protein Quantification] Lysis buffer was prepared as follows: […] of RIPA buffer (Biosesang, RC2038-050-00)+0.5 mM PMSF (SIGMA, P7626)+1× Protease/Phosphatase Inhibitor (Cell signaling, 5872S) per well was added and placed on ice for 30 minutes (vortexing at 0 and 30 minutes, respectively). After sonication process (10 seconds pulse, 30 seconds rest, 5 cycles, 70% amplification), centrifugation (15000 g, 15 min, 4° C.) was performed, and then only the supernatant was taken and transferred to a new microtube. The sample was diluted ¼ with RIPA buffer in a 96-well plate, and mixed with A:B=50:1 of the BCA Protein Assay Kit (iNtRON, 21071). […] each of the mixture was left at 37° C. for 30 minutes, and cooled for 10 minutes. Then, absorbance was measured at 562 nm with the SYNERGY H1 microplate reader from BioTek. After making a sample by quantifying the protein with the measured value, boiling was performed at 70° C. for 10 minutes. At this time, the sample buffer used was a mixture of NuPAGE or Bolt 4× sample buffer (Invitrogen) and each 10× sample reducing agent according to the gel to be used, and RIPA buffer was used for protein dilution.
[Western blotting detection method] The same amount of sample was loaded on NuPAGE or Bolt Bis-tris 4-12% gradient gel and run (200 V, 35 minutes). It was transferred to 0.2 mm NC membrane with Trans-blot Turbo (BIO-RAD) (1.3 A constant, 25 V limit, 15 minutes). Blocking was performed at room temperature for 1 hour with Skim milk or Intercept Blocking Buffer (LI-COR, 927-60001):0.1% TBST=1:1. Anti SHPTP2 Mouse (1:500 in 5% Skim milk/TBST, size: 70 kDa, Santacruz sc-7384) was incubated overnight at 4° C., and Anti GAPDH Rabbit (1:2,000 in 5% BSA/0.2% TBST, size: 37 kDa, CST #2118) was incubated at room temperature for 1 hour 30 minutes or 3 hours. It was washed 3 times for 5 minutes each with 0.2% TBST washing buffer. Secondary antibody Anti-Rabbit IgG (1:5,000 in 5% Skim milk/0.2% TBST, CST), and IRDye® 680RD Goat anti-Rabbit IgG Secondary Antibody (1:10,000 in 5% BSA/0.2% TBST, LI-COR 926-68071) were incubated for 45 minutes on a rocker at room temperature. It was washed 5 times for 5 minutes each with 0.2% TBST washing buffer and detected with LI-COR's Odyssey. At this time, SHPTP2 was detected using SuperSignal West Pico PLUS Chemiluminescent Substrate, and house-keeping genes were also detected.
In the results of Table 4 below, Compounds 1-7, 13-19, and 21-26 are results in KYSE-520 cells, and the others are results in MV-4-11 cells.

Row | SHP2 degradation (%) 10 nM | SHP2 degradation (%) 100 nM | SHP2 degradation (%) 1000 nM | SMILES
1 | 28.9% | 64.5% | 74.5% | Cc1ncsc1-c1ccc(CNC(=O)[C@@H]2C[C@@H](O)CN2C(=O)[C@@H](NC(=O)C2(F)CC2)C(C)(C)C)c(OCCCN2CCC(C(=O)Nc3cccc(Sc4cnc(N5CCC(C)(CN)CC5)cn4)c3Cl)CC2)c1 [Example 1, N-(3-((5-(4-(aminomethyl)-4-methylpiperidin-1-yl)pyrazin-2-yl)thio)-2-chlorophenyl)-1-(3-(2-(((2S,4R)-1-((S)-2-(1-fluorocyclopropane-1-carboxamido)-3,3-dimethylbutanoyl)-4-hydroxypyrrolidine-2-carboxamido)methyl)-5-(4-methylthiazol-5-yl)phenoxy)propyl)piperidine-4-carboxamide]
2 | 23.3% | 81.8% | 94.3% | Cc1ncsc1-c1ccc(CNC(=O)[C@@H]2C[C@@H](O)CN2C(=O)[C@@H](NC(=O)C2(F)CC2)C(C)(C)C)c(OCCCCN2CCC(C(=O)Nc3cccc(Sc4cnc(N5CCC(C)(CN)CC5)cn4)c3Cl)CC2)c1 [Example 2, N-(3-((5-(4-(aminomethyl)-4-methylpiperidin-1-yl)pyrazin-2-yl)thio)-2-chlorophenyl)-1-(4-(2-(((2S,4R)-1-((S)-2-(1-fluorocyclopropane-1-carboxamido)-3,3-dimethylbutanoyl)-4-hydroxypyrrolidine-2-carboxamido)methyl)-5-(4-methylthiazol-5-yl)phenoxy)butyl)piperidine-4-carboxamide]
3 | −15.6% | 48.8% | 84.0% | Cc1ncsc1-c1ccc(CNC(=O)[C@@H]2C[C@@H](O)CN2C(=O)[C@@H](NC(=O)C2(F)CC2)C(C)(C)C)c(OCCCCCCN2CCC(C(=O)Nc3cccc(Sc4cnc(N5CCC(C)(CN)CC5)cn4)c3Cl)CC2)c1 [Example 3, N-(3-((5-(4-(aminomethyl)-4-methylpiperidin-1-yl)pyrazin-2-yl)thio)-2-chlorophenyl)-1-(6-(2-(((2S,4R)-1-((S)-2-(1-fluorocyclopropane-1-carboxamido)-3,3-dimethylbutanoyl)-4-hydroxypyrrolidine-2-carboxamido)methyl)-5-(4-methylthiazol-5-yl)phenoxy)hexyl)piperidine-4-carboxamide]
4 | 4.1% | 60.7% | 90.7% | Cc1ncsc1-c1ccc(CNC(=O)[C@@H]2C[C@@H](O)CN2C(=O)[C@@H](NC(=O)C2(F)CC2)C(C)(C)C)c(OCCCCCCCCN2CCC(C(=O)Nc3cccc(Sc4cnc(N5CCC(C)(CN)CC5)cn4)c3Cl)CC2)c1 [Example 4, N-(3-((5-(4-(aminomethyl)-4-methylpiperidin-1-yl)pyrazin-2-yl)thio)-2-chlorophenyl)-1-(8-(2-(((2S,4R)-1-((S)-2-(1-fluorocyclopropane-1-carboxamido)-3,3-dimethylbutanoyl)-4-hydroxypyrrolidine-2-carboxamido)methyl)-5-(4-methylthiazol-5-yl)phenoxy)octyl)piperidine-4-carboxamide]
5 | 3.4% | 56.7% | 90.6% | Cc1ncsc1-c1ccc(CNC(=O)[C@@H]2C[C@@H](O)CN2C(=O)[C@@H](NC(=O)C2(F)CC2)C(C)(C)C)c(OCCN2CCC(CC(=O)Nc3cccc(Sc4cnc(N5CCC(C)(CN)CC5)cn4)c3Cl)CC2)c1 [Example 5, (2S,4R)—N-(2-(2-(4-(2-((3-((5-(4-(aminomethyl)-4-methylpiperidin-1-yl)pyrazin-2-yl)thio)-2-chlorophenyl)amino)-2-oxoethyl)piperidin-1-yl)ethoxy)-4-(4-methylthiazol-5-yl)benzyl)-1-((S)-2-(1-fluorocyclopropane-1-carboxamido)-3,3-dimethylbutanoyl)-4-hydroxypyrrolidine-2-carboxamide]
6 | 19.5% | 82.4% | 95.0% | Cc1ncsc1-c1ccc(CNC(=O)[C@@H]2C[C@@H](O)CN2C(=O)[C@@H](NC(=O)C2(F)CC2)C(C)(C)C)c(OCCCN2CCC(CC(=O)Nc3cccc(Sc4cnc(N5CCC(C)(CN)CC5)cn4)c3Cl)CC2)c1 [Example 6, (2S,4R)—N-(2-(3-(4-(2-((3-((5-(4-(aminomethyl)-4-methylpiperidin-1-yl)pyrazin-2-yl)thio)-2-chlorophenyl)amino)-2-oxoethyl)piperidin-1-yl)propoxy)-4-(4-methylthiazol-5-yl)benzyl)-1-((S)-2-(1-fluorocyclopropane-1-carboxamido)-3,3-dimethylbutanoyl)-4-hydroxypyrrolidine-2-carboxamide]
7 | −6.1% | 49.6% | 69.2% | Cc1ncsc1-c1ccc(CNC(=O)[C@@H]2C[C@@H](O)CN2C(=O)[C@@H](NC(=O)C2(F)CC2)C(C)(C)C)c(OCCN2CCC(CCC(=O)Nc3cccc(Sc4cnc(N5CCC(C)(CN)CC5)cn4)c3Cl)CC2)c1 [Example 13, (2S,4R)—N-(2-(2-(4-(3-((3-((5-(4-(aminomethyl)-4-methylpiperidin-1-yl)pyrazin-2-yl)thio)-2-chlorophenyl)amino)-3-oxopropyl)piperidin-1-yl)ethoxy)-4-(4-methylthiazol-5-yl)benzyl)-1-((S)-2-(1-fluorocyclopropane-1-carboxamido)-3,3-dimethylbutanoyl)-4-hydroxypyrrolidine-2-carboxamide]

Row | SMILES | SHP2 degradation (%) 10 nM | SHP2 degradation (%) 100 nM | SHP2 degradation (%) 1000 nM
8 | Cc1ncsc1-c1ccc(CNC(=O)[C@@H]2C[C@@H](O)CN2C(=O)[C@@H](NC(=O)C2(F)CC2)C(C)(C)C)c(OCCCCN2CCC(CC(=O)Nc3cccc(Sc4cnc(N5CCC(C)(CN)CC5)cn4)c3Cl)CC2)c1 [Example 7, (2S,4R)—N-(2-(4-(4-(2-((3-((5-(4-(aminomethyl)-4-methylpiperidin-1-yl)pyrazin-2-yl)thio)-2-chlorophenyl)amino)-2-oxoethyl)piperidin-1-yl)butoxy)-4-(4-methylthiazol-5-yl)benzyl)-1-((S)-2-(1-fluorocyclopropane-1-carboxamido)-3,3-dimethylbutanoyl)-4-hydroxypyrrolidine-2-carboxamide] | 25.4% | 75.2% | 93.8%
